Assay results taken from patent publication US20120202690A1, “HERBICIDAL COMPOUNDS” (SYNGENTA LIMITED, priority 2009, published 2012).

Columns and labels:
Assay type in all cases: in vivo
[1] = system: Alopecurus myosuroides (ALOMY); experiment: Pre-emergence biological efficacy, glasshouse, 1000 g/ha, evaluated after 13 days (100=total damage to plant; 0=no damage to plant); details: Alopecurus myosuroides, 312 h, read-out: Percentage damage caused to weed species, pre-emergence, ALOMY; for pest or weed control at 1000 g/ha: rate 1,000 g/ha
In short: (§1)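 Sowing: standard soil, pots. Growth: glasshouse, 24/16° C. day/night, 14 hours light, 65% humidity. Watering: twice daily.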

[2] = system: Amaranthus retroflexus (AMARE); experiment: as above; details: Amaranthus retroflexus, 312 h, read-out: Percentage damage caused to weed species, pre-emergence, AMARE; for pest or weed control at 1000 g/ha: rate 1,000 g/ha
In short: as §1

[3] = system: Echinochloa crus-galli (ECHCG); experiment: as above; details: Echinochloa crus-galli, 312 h, read-out: Percentage damage caused to weed species, pre-emergence, ECHCG; for pest or weed control at 1000 g/ha: rate 1,000 g/ha
In short: as §1

[4] = system: Ipomoea hederaceae (IPOHE); experiment: as above; details: Ipomoea, 312 h, read-out: Percentage damage caused to weed species, pre-emergence, IPOHE; for pest or weed control at 1000 g/ha: rate 1,000 g/ha
In short: as §1

Setaria faberi (SETFA) [5] = experiment: as above; details: Setaria faberi, 312 h, read-out: Percentage damage caused to weed species, pre-emergence, SETFA; for pest or weed control at 1000 g/ha: rate 1,000 g/ha
In short: as §1

Solanum nigrum (SOLNI) [6] = experiment: as above; details: Solanum nigrum, 312 h, read-out: Percentage damage caused to weed species, pre-emergence, SOLNI; for pest or weed control at 1000 g/ha: rate 1,000 g/ha
In short: as §1

[7] = system: Alopecurus myosuroides (ALOMY); experiment: Post-emergence biological efficacy, glasshouse, 500 or 1000 g/ha, evaluated after 13 days (100=total damage to plant; 0=no damage to plant); details: Alopecurus myosuroides, 312 h, read-out: Percentage damage caused to weed species, post-emergence, ALOMY; for pest or weed control at 1000 g/ha: rate 1,000 g/ha
In short: (§2)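 Sow seeds in standard potting soil. Treat after emergence. Keep treated plants in the glasshouse at 24° C. by day and 16° C. by night, with a 14-hour photoperiod, 65% humidity and two waterings daily.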

[8] = system: Amaranthus retroflexus (AMARE); experiment: as above; details: Amaranthus retroflexus, 312 h, read-out: Percentage damage caused to weed species, post-emergence, AMARE; for pest or weed control at 1000 g/ha: rate 1,000 g/ha
In short: as §2

[9] = system: Echinochloa crusgaffi (ECHCG); experiment: as above; details: Echinochloa, 312 h, read-out: Percentage damage caused to weed species, post-emergence, ECHCG; for pest or weed control at 1000 g/ha: rate 1,000 g/ha
In short: as §2

[10] = system: Ipomoea hederaceae (IPOHE); experiment: as above; details: Ipomoea, 312 h, read-out: Percentage damage caused to weed species, post-emergence, IPOHE; for pest or weed control at 1000 g/ha: rate 1,000 g/ha
In short: as §2

Setaria faberi (SETFA) [11] = experiment: as above; details: Setaria faberi, 312 h, read-out: Percentage damage caused to weed species, post-emergence, SETFA; for pest or weed control at 1000 g/ha: rate 1,000 g/ha
In short: as §2

Solanum nigrum (SOLNI) [12] = experiment: as above; details: Solanum nigrum, 312 h, read-out: Percentage damage caused to weed species, post-emergence, SOLNI; for pest or weed control at 1000 g/ha: rate 1,000 g/ha
In short: as §2

SMILES	pest or weed control at 1000 g/ha [1]	pest or weed control at 1000 g/ha [2]	pest or weed control at 1000 g/ha [3]	pest or weed control at 1000 g/ha [4]	pest or weed control at 1000 g/ha (Setaria faberi (SETFA) [5])	pest or weed control at 1000 g/ha (Solanum nigrum (SOLNI) [6])	pest or weed control at 1000 g/ha [7]	pest or weed control at 1000 g/ha [8]	pest or weed control at 1000 g/ha [9]	pest or weed control at 1000 g/ha [10]	pest or weed control at 1000 g/ha (Setaria faberi (SETFA) [11])	pest or weed control at 1000 g/ha (Solanum nigrum (SOLNI) [12])	also measured
COc1c(Cl)ccc(-c2nc(C(=O)O)c3cc(C)n(CC4CC4)c3n2)c1F [Compound 5-65, 4-Carboxy-2-(4-chloro-2-fluoro-3-methoxyphenyl)-7-cyclopropymethyl-6-methyl-7H-pyrrolo[2,3-d]pyrimidine]	0%	0%	0%	0%	0%	0%	0%	10%	0%	10%	20%	20%	–
COC(=O)c1nc(-c2ccc(Cl)c(OC)c2F)nc2c1cc(C)n2CC1CC1 [Compound 5-66, 2-(4-Chloro-2-fluoro-3-methoxyphenyl)-7-cyclopropylmethyl-4-methoxycarbonyl-6-methyl-7H-pyrrolo[2,3-d]pyrimidine]	0%	0%	0%	0%	0%	0%	10%	0%	10%	0%	20%	20%	–
O=C(O)c1nc(-c2ccc(Cl)c(F)c2)nc2c1ccn2Cc1ccccc1 [Compound 6-17, 4-Carboxy-2-(4-chloro-3-fluorophenyl)-7-phenylmethyl-7H-pyrrolo[2,3-d]pyrimidine]	0%	0%	0%	0%	0%	0%	0%	20%	0%	0%	0%	40%	–
COC(=O)c1nc(-c2ccc(Cl)c(F)c2)nc2c1ccn2Cc1ccccc1 [Compound 6-18, 2-(4-Chloro-3-fluorophenyl)-4-methoxycarbonyl-7-phenylmethyl-7H-pyrrolo[2,3-d]pyrimidine]	0%	0%	0%	0%	0%	0%	0%	0%	0%	20%	0%	40%	–
Cc1cc2c(C(=O)O)nc(-c3ccc(Cl)c(F)c3)nc2n1Cc1ccccc1 [Compound 6-21, 4-Carboxy-2-(4-chloro-3-fluorophenyl)-6-methyl-7-phenylmethyl-7H-pyrrolo[2,3-d]pyrimidine]	–	–	–	–	–	–	–	–	–	–	–	–	pest or weed control at 250 g/ha ([1]; rate 250 g/ha): 0%; pest or weed control at 250 g/ha ([2]; rate 250 g/ha): 0%; pest or weed control at 250 g/ha ([3]; rate 250 g/ha): 0%; pest or weed control at 250 g/ha ([4]; rate 250 g/ha): 0%; pest or weed control at 250 g/ha (Setaria faberi (SETFA) [5]; rate 250 g/ha): 0%; pest or weed control at 250 g/ha (Solanum nigrum (SOLNI) [6]; rate 250 g/ha): 0%; pest or weed control at 250 g/ha ([7]; rate 250 g/ha): 10%; pest or weed control at 250 g/ha ([8]; rate 250 g/ha): 0%; pest or weed control at 250 g/ha ([9]; rate 250 g/ha): 0%; pest or weed control at 250 g/ha ([10]; rate 250 g/ha): 10%; pest or weed control at 250 g/ha (Setaria faberi (SETFA) [11]; rate 250 g/ha): 0%; pest or weed control at 250 g/ha (Solanum nigrum (SOLNI) [12]; rate 250 g/ha): 10%
COc1c(Cl)ccc(-c2nc(C(=O)O)c3c(C)cn(Cc4ccccc4)c3n2)c1F [Compound 6-63, 7-Benzyl-4-carboxy-2-(4-chloro-2-fluoro-3-methoxyphenyl)-5-methyl-7H-pyrrolo[2,3-d]pyrimidine]	0%	0%	0%	0%	0%	0%	10%	80%	40%	60%	50%	70%	–
COC(=O)c1nc(-c2ccc(Cl)c(OC)c2F)nc2c1c(C)cn2Cc1ccccc1 [Compound 6-64, 2-(4-Chloro-2-fluoro-3-methoxyphenyl)-4-methoxycarbonyl-5-methyl-7-phenylmethyl-7H-pyrrolo[2,3-d]pyrimidine]	0%	50%	0%	30%	0%	50%	0%	20%	0%	50%	0%	70%	–
COc1c(Cl)ccc(-c2nc(C(=O)O)c3cc(C)n(Cc4ccccc4)c3n2)c1F [Compound 6-65, 4-Carboxy-2-(4-chloro-2-fluoro-3-methoxyphenyl)-6-methyl-7-phenylmethyl-7H-pyrrolo[2,3-d]pyrimidine]	0%	0%	0%	0%	0%	0%	0%	20%	0%	40%	0%	80%	–
COC(=O)c1nc(-c2ccc(Cl)c(OC)c2F)nc2c1cc(C)n2Cc1ccccc1 [Compound 6-66, 2-(4-Chloro-2-fluoro-3-methoxyphenyl)-4-methoxycarbonyl-6-methyl-7-phenylmethyl-7H-pyrrolo[2,3-d]pyrimidine]	0%	10%	0%	0%	0%	20%	0%	40%	0%	40%	10%	80%	–
COc1c(Cl)ccc(-c2nc(C(=O)O)c3c(C)cn(C(C)c4ccccc4)c3n2)c1F (stereo not drawn) [Compound 7-63, 4-Carboxy-2-(4-chloro-2-fluoro-3-methoxyphenyl)-5-methyl-7-(1-phenyl-ethyl)-7H-pyrrolo[2,3-d]pyrimidine]	0%	0%	0%	0%	0%	0%	0%	20%	0%	10%	10%	60%	–
